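Growth conditions: 96-well plates. Treatment: test compound, 48 hours, 5 concentrations. Analysis: linear interpolation between bracketing concentrations; unreached endpoints set to highest concentration. GI50 is the concentration that inhibits growth by half. Definition used: TGI = concentration required for complete inhibition of growth.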
Columns and labels:
Test in all cases: NCI anticancer screen, dose series, 48 h; in the data active = GI50 below about 0.43 µM; inactive = the rest
[1] = tested on: 786-0 renal
[2] = tested on: A498 renal
[3] = tested on: A549 NSCLC
[4] = tested on: ACHN renal
[5] = tested on: BT-549 breast
[6] = tested on: CAKI-1 renal
[7] = tested on: CCRF-CEM leukemia
[8] = tested on: COLO 205 colon
[9] = tested on: DU-145 prostate
[10] = tested on: EKVX NSCLC
[11] = tested on: HCC-2998 colon
[12] = tested on: HCT-116 colon
[13] = tested on: HCT-15 colon
[14] = tested on: HL-60(TB) leukemia
[15] = tested on: HOP-62 NSCLC
[16] = tested on: HOP-92 NSCLC
[17] = tested on: HS 578T breast
[18] = tested on: HT29 colon
[19] = tested on: IGROV1 ovarian
[20] = tested on: K-562 leukemia
[21] = tested on: KM12 colon
[22] = tested on: LOX IMVI melanoma
[23] = tested on: MALME-3M melanoma
[24] = tested on: MCF7 breast
[25] = tested on: MDA-MB-231 breast
[26] = tested on: MOLT-4 leukemia
[27] = tested on: NCI-H226 lung
[28] = tested on: NCI-H23 lung
[29] = tested on: NCI-H460 lung
[30] = tested on: NCI-H522 lung
[31] = tested on: NCI/ADR-RES ovarian
[32] = tested on: OVCAR-3 ovarian
[33] = tested on: OVCAR-4 ovarian
[34] = tested on: OVCAR-5 ovarian
[35] = tested on: OVCAR-8 ovarian
[36] = tested on: PC-3 prostate
[37] = tested on: RPMI-8226 leukemia
[38] = tested on: RXF 393 renal
[39] = tested on: SF-268 CNS
[40] = tested on: SF-295 CNS
[41] = tested on: SF-539 CNS
[42] = tested on: SK-MEL-2 melanoma
[43] = tested on: SK-MEL-5 melanoma
[44] = tested on: SK-OV-3 ovarian
[45] = tested on: SN12C renal
[46] = tested on: SNB-19 CNS
[47] = tested on: SNB-75 CNS
[48] = tested on: SR leukemia
[49] = tested on: SW-620 colon
[50] = tested on: T-47D breast
[51] = tested on: TK-10 renal
[52] = tested on: U251 CNS
[53] = tested on: UACC-257 melanoma
[54] = tested on: UACC-62 melanoma
[55] = tested on: UO-31 renal
[56] = tested on: M14 melanoma
[57] = tested on: MDA-MB-435
[58] = tested on: SK-MEL-28 melanoma

COc1cc(N2C(=O)[C@H](c3ccccc3)C2c2ccc(SC)cc2)cc(OC)c1OC (stereo partly drawn)
0.0937 µM: TGI [5]
7.68 µM: TGI [37]
0.0667 µM: TGI [32]
1.46 µM: TGI [8]
active: GI50 [1] 0.0349 µM | GI50 [2] 0.0232 µM | GI50 [3] 0.0374 µM | GI50 [4] 0.0454 µM | GI50 [5] 0.0299 µM | GI50 [6] 0.0463 µM | GI50 [7] 0.0377 µM | GI50 [8] 0.0367 µM | GI50 [9] 0.0373 µM | GI50 [10] 0.0513 µM | GI50 [11] 0.0438 µM | GI50 [12] 0.0317 µM | GI50 [13] 0.034 µM | GI50 [14] 0.023 µM | GI50 [15] 0.0788 µM | GI50 [16] 0.031 µM | GI50 [17] 0.0653 µM | GI50 [18] 0.0324 µM | GI50 [19] 0.0432 µM | GI50 [20] 0.037 µM | GI50 [21] 0.0352 µM | GI50 [22] 0.0352 µM | GI50 [24] 0.0352 µM | GI50 [25] 0.0321 µM | GI50 [26] 0.04 µM | GI50 [27] 0.0301 µM | GI50 [28] 0.0502 µM | GI50 [29] 0.0346 µM | GI50 [30] 0.0232 µM | GI50 [31] 0.0335 µM | GI50 [32] 0.0265 µM | GI50 [33] 0.0545 µM | GI50 [34] 0.0613 µM | GI50 [35] 0.0388 µM | GI50 [36] 0.0428 µM | GI50 [37] 0.0416 µM | GI50 [38] 0.038 µM | GI50 [39] 0.0485 µM | GI50 [40] 0.0352 µM | GI50 [41] 0.0255 µM | GI50 [42] 0.0489 µM | GI50 [43] 0.0266 µM | GI50 [44] 0.0676 µM | GI50 [45] 0.05 µM | GI50 [46] 0.0422 µM | GI50 [47] 0.04 µM | GI50 [48] 0.0411 µM | GI50 [49] 0.0382 µM | GI50 [52] 0.0375 µM | GI50 [54] 0.0484 µM
15.2 µM: TGI [25]
0.078 µM: TGI [2]
22.9 µM: TGI [1]
8.86 µM: TGI [54]
1.76 µM: TGI [18]
0.0697 µM: TGI [41]
1.17 µM: TGI [12]
inactive: GI50 [23] > 100 µM | GI50 [50] > 100 µM | GI50 [51] 0.638 µM | GI50 [53] 1.66 µM | GI50 [55] 0.738 µM
0.0666 µM: TGI [14]
6.94 µM: TGI [40]
16.5 µM: TGI [16]
0.0821 µM: TGI [43]
0.0734 µM: TGI [30]
> 100 µM: TGI [3] | TGI [4] | TGI [6] | TGI [7] | TGI [9] | TGI [10] | TGI [11] | TGI [13] | TGI [15] | TGI [17] | TGI [19] | TGI [20] | TGI [21] | TGI [22] | TGI [23] | TGI [24] | TGI [26] | TGI [27] | TGI [28] | TGI [29] | TGI [31] | TGI [33] | TGI [34] | TGI [35] | TGI [36] | TGI [38] | TGI [39] | TGI [42] | TGI [44] | TGI [45] | TGI [46] | TGI [47] | TGI [48] | TGI [49] | TGI [50] | TGI [51] | TGI [52] | TGI [53] | TGI [55]

O=c1c2ccccc2c(/C=N\NC2=NCCN2)c2oc3ccccc3n12
29.9 µM: TGI [4]
37.2 µM: TGI [10]
34.4 µM: TGI [21]
36.3 µM: TGI [41]
> 100 µM: TGI [1] | TGI [5] | TGI [6] | TGI [7] | TGI [12] | TGI [15] | TGI [18] | TGI [20] | TGI [56] | TGI [57] | TGI [26] | TGI [31] | TGI [37] | TGI [39] | TGI [48] | TGI [53]
51.1 µM: TGI [16]
34.7 µM: TGI [9]
27.7 µM: TGI [45]
49 µM: TGI [58]
34.3 µM: TGI [32]
39.5 µM: TGI [29]
38.7 µM: TGI [8]
60.3 µM: TGI [3]
87.6 µM: TGI [42]
36 µM: TGI [50]
37.1 µM: TGI [34]
40.8 µM: TGI [24] | TGI [44]
92.6 µM: TGI [14]
51.3 µM: TGI [46]
48.2 µM: TGI [27]
42 µM: TGI [47]
74 µM: TGI [49]
62.1 µM: TGI [13]
41.7 µM: TGI [43]
37.6 µM: TGI [28]
67.6 µM: TGI [30]
45.6 µM: TGI [35] | TGI [36]
inactive: GI50 [1] 33.9 µM | GI50 [3] 16.4 µM | GI50 [4] 14.2 µM | GI50 [5] 31.3 µM | GI50 [6] 27.2 µM | GI50 [7] 32.2 µM | GI50 [8] 18.8 µM | GI50 [9] 15 µM | GI50 [10] 16.5 µM | GI50 [11] 12.9 µM | GI50 [12] 19.1 µM | GI50 [13] 14.7 µM | GI50 [14] 25.3 µM | GI50 [15] 28.6 µM | GI50 [16] 22.5 µM | GI50 [18] 20.7 µM | GI50 [20] 22.2 µM | GI50 [21] 16.7 µM | GI50 [22] 13.2 µM | GI50 [56] 34.4 µM | GI50 [24] 18.5 µM | GI50 [25] 16.7 µM | GI50 [57] 38 µM | GI50 [26] 23.8 µM | GI50 [27] 19.2 µM | GI50 [28] 15.7 µM | GI50 [29] 17.8 µM | GI50 [30] 16.2 µM | GI50 [31] > 100 µM | GI50 [32] 18.6 µM | GI50 [33] 23.7 µM | GI50 [34] 19.8 µM | GI50 [35] 19.4 µM | GI50 [36] 23 µM | GI50 [37] 28.6 µM | GI50 [38] 21.4 µM | GI50 [39] 57.8 µM | GI50 [40] 13.5 µM | GI50 [41] 18.1 µM | GI50 [42] 21.8 µM | GI50 [58] 20.7 µM | GI50 [43] 21.3 µM | GI50 [44] 19.5 µM | GI50 [45] 11.2 µM | GI50 [46] 22.5 µM | GI50 [47] 19.4 µM | GI50 [48] 6.12 µM | GI50 [49] 22.1 µM | GI50 [50] 17.6 µM | GI50 [51] 16.3 µM | GI50 [52] 18.7 µM | GI50 [53] > 100 µM | GI50 [54] 16.3 µM | GI50 [55] 18.8 µM
35 µM: TGI [25]
70.9 µM: TGI [55]
33.4 µM: TGI [54]
51.2 µM: TGI [52]
40.2 µM: TGI [38]
31.3 µM: TGI [22] | TGI [51]
27.8 µM: TGI [40]
34.1 µM: TGI [11]
65.7 µM: TGI [33]
